According to patent US20250034171A1, “IMIDAZOPYRIDINE AMIDES AND RELATED COMPOUNDS FOR USE IN THE TREATMENT OF BACTERIAL INFECTIONS” (priority 2021, published 2025):
Converted amounts (≈) assume the structure as drawn.

What was measured:
[1] = Metabolic stability in liver microsomes (intrinsic clearance); type: in vitro ADME; conditions: mouse, microsomes; for half-life at 1 µM: pH 7.4, Metabolic Stability Half life (mouse, min.); for microsomal CLint at 1 µM: pH 7.4, mouse liver microsomes, read-out: Metabolic Stability (liver microsome intrinsic clearance) Clearance (mouse, μl/min./mg protein)
How it was run: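 Parent-compound loss, followed by LC-MS/MS peak area versus t=0, was tracked over 0, 5, 10, 20, 40 and 60 min in NADPH-initiated (1 mM) microsomal incubations: 0.5 mg/ml protein, pH 7.4 phosphate, 1 mM MgCl2, 37° C, substrate typically 1 μM. Half-life from regression gave intrinsic clearance per mg protein.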

[2] = system: Mycobacterium tuberculosis strain H37Rv; experiment: Test 2: MIC determination against M. tuberculosis, resazurin fluorescence; type: cell-based; conditions: Mycobacterium tuberculosis, H37RV, Test 2, M. tuberculosis H37Rv; for MIC90: read-out: Bacterial activity MIC90; for IC50: read-out: Bacterial activity pMIC50 (converted)
[3] = system: Salmonella typhimurium Ames II Mixed Strains (TA7001-TA7006) and TA98; experiment: Genotoxicity assay (AmesIIb mutagenicity test); type: cell-based; conditions: Salmonella typhimurium; also: key: an AmesIIb score of 1 shows no genotoxicity signals
How it was run: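 Histidine-requiring strains were exposed to graded compound concentrations, both without and with a mammalian metabolic activation system. Base substitutions were detected with a mixture of TA7001–TA7006 and frameshifts with TA98. Reversion to histidine independence was scored by growth in histidine-lacking medium.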

[4] = HTChem stab assay (chemical stability in buffer pH2, pH4 and pH7 vs DMSO reference); type: physicochemical; conditions: 72 h, 50 µM; for Chemical stability data, Buffer pH2: pH 2; for Chemical stability data, Buffer pH4: pH 4; for Chemical stability data, Buffer pH7: pH 7
How it was run: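 Compound from 10 mM DMSO stock shaken 72 h at room temperature in Buffer/DMSO (2:1) at pH2 (0.1N HCl), pH4 or pH7 (phosphate), alongside a DMSO control. Samples analysed by LC/UV/MS against the DMSO reference; degradant peaks identified by MS and sample purity reported.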

M. tuberculosis = conditions: cited from earlier work
[5] = system: M. tuberculosis H37Rv inside macrophages; conditions: strain M. tuberculosis H37Rv; cited from earlier work

## CCc1nc2ncc(C)cn2c1C(=O)NCc1ccc(-c2nc3n(n2)CCCC3)cc1 [Compound 31ab]
[1]
  half-life at 1 µM: > 3 h
  microsomal CLint at 1 µM: < 7.7 µL/min/mg
[2]
  MIC90: 0.052 µM (≈ 0.0216 µg/mL)
  IC50: 16000 pM
[3]
  GeneTox AmesIIb Score: 1
[4]
  Chemical stability data, Vehicle DMSO: 100%
  Chemical stability data, Buffer pH2: 100%
  Chemical stability data, Buffer pH4: 100%
  Chemical stability data, Buffer pH7: 100%

## CCc1nc2nc(C)ccn2c1C(=O)NCc1ccc(-c2cn3c(n2)CC(C(F)(F)F)CC3)cc1 (stereo not drawn) [Compound 34ab]
[1]
  half-life at 1 µM: > 3 h
  microsomal CLint at 1 µM: < 7.7 µL/min/mg
[2]
  MIC90: 0.387 µM (≈ 0.187 µg/mL)
  IC50: 94600 pM
[3]
  GeneTox AmesIIb Score: 1
[4]
  Chemical stability data, Vehicle DMSO: 94%
  Chemical stability data, Buffer pH2: 94%
  Chemical stability data, Buffer pH4: 95%
  Chemical stability data, Buffer pH7: 93%

## CCc1nc2nc(F)ccn2c1C(=O)NCc1ccc(-c2cn3c(n2)CC(C)CC3)cc1 (stereo not drawn) [Compound 35ab]
[1]
  half-life at 1 µM: 0.498 h
  microsomal CLint at 1 µM: 46.4 µL/min/mg
[2]
  MIC90: 0.041 µM (≈ 0.0177 µg/mL)
  IC50: 13400 pM
[3]
  GeneTox AmesIIb Score: 1
[4]
  Chemical stability data, Vehicle DMSO: 100%
  Chemical stability data, Buffer pH2: 100%
  Chemical stability data, Buffer pH4: 99%
  Chemical stability data, Buffer pH7: 98%

## CCc1nc2ccc(Cl)cn2c1C(=O)NCc1ccc(N2CCC(c3ccc(OC(F)(F)F)cc3)CC2)cc1 [Compound Q203]
M. tuberculosis; MDR tuberculosis
  activity against MDR tuberculosis: activity against MDR tuberculosis
M. tuberculosis; replicating and non-replicating bacteria
  activity against replicating and non-replicating bacteria: highly active
[5]
  MIC50: 0.00028 µM (≈ 0.000156 µg/mL)
